Drawing on patent US11168102B1, “Bicyclic heteroaryl compounds and uses thereof” (Revolution Medicines, Inc., priority 2019, dated 2021), this text covers IC50 for 49 molecules.

Read-outs that look alike come from different tables or passages of the source.

The assay has as its system cellular pERK in PC-9 cells (EGFR Ex19Del). In words: Potency assay: pERK (AlphaLISA SureFire Ultra p-ERK1/2) in PC-9 cells. In kind it is cell-based. The settings on record: read-out: SOS1 pERK IC50.
Where [1] appears, read: Homo sapiens, PC-9, 1 h, PC-9 cells (EGFR Ex19Del), 1 hour incubation, AlphaLISA SureFire Ultra p-ERK1/2.
[2] abbreviates: PC-9 cells (EGFR Ex19Del), 1 hour incubation, AlphaLISA SureFire Ultra p-ERK1/2.

The term IC50 denotes the concentration that gives 50% inhibition.

Turning to `COC1(c2cc3c(N[C@H](C)c4nccc(C(F)F)c4F)ncnc3n(C)c2=O)CCN(C(C)=O)CC1` [Example 62, 6-(1-acetyl-4-methoxy-4-piperidyl)-4-[[(1R)-1-[4-(difluoromethyl)-3-fluoro-2-pyridyl]ethyl]amino]-8-methyl-pyrido[2,3-d]pyrimidin-7-one], under setting [1], the IC50 stood at 262 nM.
Consider `COC1(c2cc3c(N[C@H](C)c4cccc(C(F)F)c4F)ncnc3n(C)c2=O)CCN(C(=O)C2COC2)CC1` [Example 32-12], for which, under setting [1], the concentration for half-maximal inhibition (IC50) amounted to 28.6 nM.
The same measure, in the same setting: to `C[C@@H](Nc1ncnc2c1cc(C1(F)CCN(C3COC3)CC1)c(=O)n2C)c1cccc(C(F)F)c1F` [Example 29-13] belongs 196 nM.
As to `C[C@@H](Nc1ncnc2c1cc(C1=CCS(=O)(=NC#N)CC1)c(=O)n2C)c1cccc(C(F)F)c1F` (single isomer, unassigned) [Example 46], the IC50 under setting [2] worked out at 43.3 nM.
As for `C[C@@H](Nc1ncnc2c1cc(C1=CCS(=N)(=O)CC1)c(=O)n2C)c1cccc(C(F)F)c1F` (stereo partly drawn) [Example 23, 4-(((R)-1-(3-(difluoromethyl)-2-fluorophenyl)ethyl)amino)-6-(1-imino-1-oxido-1,2,3,6-tetrahydro-1λ^6-thiopyran-4-yl)-8-methylpyrido[2,3-d]pyrimidin-7(8H)-one], under setting [1], the half-inhibitory concentration (IC50) is 48.5 nM.
For `C[C@@H](Nc1ncnc2c1cc(C1(C#N)CCP(C)(=O)CC1)c(=O)n2C)c1cccc(C(F)F)c1F` (stereo partly shown) [Example 36-12], the IC50 under setting [2] came to 448 nM.
Same read-out and setting: to `C[C@@H](Nc1ncnc2c1cc(C1CCS(=O)(=O)C1)c(=O)n2C)c1cccc(C(F)F)c1F` (stereo partly shown) [Example 33-20] belongs 52.7 nM.
Take `CC(=O)N1CC[C@@H](c2cc3c(N[C@H](C)c4cccc(C(F)F)c4F)ncnc3n(C)c2=O)C1` [Example 33-14]: the IC50 under setting [1] is 271 nM.
Turning to `C[C@@H](Nc1ncnc2c1cc(C(=O)N1CC[C@@H]3CO[C@@H]3C1)c(=O)n2C)c1cccc(C(F)F)c1F` [Example 26-16], the IC50 under setting [1] worked out at 729 nM.
As to `CC(=O)N1CC(c2cc3c(N[C@H](C)c4cccc(C(F)F)c4F)ncnc3n(C)c2=O)C1` [Example 33-11], the IC50 under setting [1] was found to be 169 nM.
In the case of `C[C@@H](Nc1ncnc2c1cc(C1CCS(=O)(=NC3CC3)CC1)c(=O)n2C)c1cccc(C(F)F)c1F` (single isomer, unassigned) [Example 64-1], the IC50 under setting [2] turned out to be 26.3 nM.
On to `COC(=O)N1CCC(OC)(c2cc3c(N[C@H](C)c4cccc(C(F)F)c4F)ncnc3n(C)c2=O)CC1` [Example 32-61], for which the IC50 under setting [1] is 115 nM.
As to `COC1(c2cc3c(N[C@H](C)c4cccc(C(F)F)c4F)ncnc3n(C)c2=O)CCN(C(C)=O)C2(CC2)C1` (stereo partly shown) [Example 32-43], the IC50 under setting [2] stood at 181 nM.
Consider `COC1(c2cc3c(N[C@H](C)c4cccc(C(F)F)c4F)ncnc3n(C)c2=O)CCC2(CC1)CS(=O)(=O)C2` [Example 32-4], for which, under setting [1], the IC50 turned out to be 9.29 nM.
For the molecule `COC1(c2cc3c(N[C@H](C)c4cccc(C(F)F)c4F)ncnc3n(C)c2=O)CC(N(C)C(C)=O)C1` (stereo in doubt) [Example 32-40], under setting [1], the IC50 amounted to 382 nM.
In the case of `CC(=O)N1CC(C#N)(c2cc3c(N[C@H](C)c4cccc(C(F)F)c4F)ncnc3n(C)c2=O)C1` [Example 36-3], under setting [1], the half-maximal inhibitory concentration (IC50) was 181 nM.
Regarding `CC(=O)N1CCC2(c3cc4c(N[C@H](C)c5cccc(C(F)F)c5F)ncnc4n(C)c3=O)CC2C1` (single isomer, unassigned) [Example 54-4], the IC50 under setting [2] was 301 nM.
As to `CC(=O)N1CC(F)(c2cc3c(N[C@H](C)c4cccc(C(F)F)c4F)ncnc3n(C)c2=O)C1` [Example 29-2], under setting [1], the IC50 was determined as 91.5 nM.
On to `COC1(c2cc3c(N[C@H](C)c4cccc(C(F)F)c4F)ncnc3n(C)c2=O)CCOCC1` [Example 32-56], for which the IC50 under setting [1] is 93.7 nM.
On the same count and under the same terms, the result for `C[C@@H](Nc1ncnc2c1cc(C1(C#N)CCN(S(C)(=O)=O)C1)c(=O)n2C)c1cccc(C(F)F)c1F` (stereo partly shown) [Example 36-4] reads 91 nM; that for `CO[C@]1(c2cc3c(N[C@H](C)c4cccc(C(F)F)c4F)ncnc3n(C)c2=O)C[C@H](N(C)C(C)=O)C1` [Example 32-41], 461 nM.
For `CN=S1(=O)CCC(F)(c2cc3c(N[C@H](C)c4cccc(C(F)F)c4F)ncnc3n(C)c2=O)CC1` (stereo partly drawn) [Example 52, 4-(((R)-1-(3-(difluoromethyl)-2-fluorophenyl)ethyl)amino)-6-((1R,4r)-4-fluoro-1-(methylimino)-1-oxidohexahydro-1λ-thiopyran-4-yl)-8-methylpyrido[2,3-d]pyrimidin-7(8H)-one], the IC50 under setting [2] came out at 70.6 nM.
Regarding `COC1(c2cc3c(N[C@H](C)c4cccc(C(F)F)c4F)ncnc3n(C)c2=O)CCN(C(C)=O)CC1` [Example 32-1], the IC50 under setting [1] worked out at 124 nM.
For the molecule `C[C@@H](Nc1ncnc2c1cc(C1(C#N)CCC3(CC1)CS(=O)(=NC1CC1)C3)c(=O)n2C)c1cccc(C(F)F)c1F` (single isomer, unassigned) [Example 58-2], under setting [2], the IC50 came to 56.2 nM.
For the molecule `C[C@@H](Nc1ncnc2c1cc(C(=O)N1CC[C@@H]3CCO[C@@H]31)c(=O)n2C)c1cccc(C(F)F)c1F` [Example 26-17], the 50% inhibitory concentration (IC50) under setting [1] was determined as 195 nM.
With `CC(=O)N1CC=C(c2cc3c(N[C@H](C)c4cccc(C(F)F)c4F)ncnc3n(C)c2=O)CC1` [Example 1-16], the IC50 under setting [1] came to 119 nM.
Still for that read-out and setting: the result for `CC(=O)N1CC[C@@](C#N)(c2cc3c(N[C@H](C)c4cccc(C(F)F)c4F)ncnc3n(C)c2=O)C1` [Example 36-11] reads 268 nM.
On to `C[C@@H](Nc1ncnc2c1cc(C1(F)CCS(=N)(=O)CC1)c(=O)n2C)c1cccc(C(F)F)c1F` (stereo partly shown) [Example 29-15], for which the IC50 under setting [2] was determined as 42.2 nM.
Consider `C[C@@H](Nc1ncnc2c1cc(C1(N)CCP(C)(=O)CC1)c(=O)n2C)c1cccc(C(F)F)c1F` (stereo partly shown) [Example 31-10], for which the IC50 under setting [2] was found to be 51.8 nM.
On to `Cc1nc(N[C@H](C)c2cccc(C(F)F)c2F)c2cc(CN3CCOCC3)c(=O)n(C)c2n1` [Example 27, 4-{[(1R)-1-[3-(difluoromethyl)-2-fluorophenyl]ethyl]amino}-2,8-dimethyl-6-[(morpholin-4-yl)meth-yl]-7H,8H-pyrido[2,3-d]pyrimidin-7-one], for which, under setting [1], the IC50 came to 852 nM.
Turning to `C[C@@H](Nc1ncnc2c1cc(C1(F)CCC3(CC1)CS(=O)(=O)C3)c(=O)n2C)c1cccc(C(F)F)c1F` [Example 29-7], the IC50 under setting [1] was found to be 81.1 nM.
With `COC1(c2cc3c(N[C@H](C)c4cccc(C(F)F)c4F)ncnc3n(C)c2=O)CCN(C(C)=O)C2(CC2)C1` (stereo partly shown) [Example 32-42], the 50% inhibitory concentration (IC50) under setting [1] was 355 nM.
For the molecule `COC1(c2cc3c(N[C@H](C)c4cccc(C(F)F)c4F)ncnc3n(C)c2=O)CCC2(CC1)CS(=O)(=NC1CC1)C2` (stereo partly shown) [Example 68-1], the IC50 under setting [1] came to 24.1 nM.
Consider `C[C@@H](Nc1ncnc2c1cc(C1(N)CCS(=O)(=O)CC1)c(=O)n2C)c1cccc(C(F)F)c1F` [Example 31-1], for which, under setting [1], the IC50 turned out to be 45.6 nM.
Consider `CO[C@@]1(c2cc3c(N[C@H](C)c4cccc(C(F)F)c4F)ncnc3n(C)c2=O)CCN(C(C)=O)C1` [Example 32-23], for which the IC50 under setting [1] came to 52.7 nM.
`CO[C@@]1(c2cc3c(N[C@H](C)c4cccc(C(F)F)c4F)ncnc3n(C)c2=O)C[C@@H](C)N(C(C)=O)C1` [Example 32-48]: under setting [1], the IC50 was determined as 5.4 nM.
In the case of `C[C@@H](Nc1ncnc2c1cc(C(=O)N1CC3CCC1CO3)c(=O)n2C)c1cccc(C(F)F)c1F` (stereo partly shown) [Example 26-18], the IC50 under setting [1] stood at 589 nM.
In the case of `CC(=O)N1CCC(c2cc3c(N[C@H](C)c4cccc(C(F)F)c4CF)ncnc3n(C)c2=O)CC1` [Example 39, 6-(1-acetylpiperidin-4-yl)-4-{[(1R)-1-[3-(difluoromethyl)-2-(fluoromethyl)phenyl]ethyl]amino}-8-methyl-7H,8H-pyrido[2,3-d]pyrimidin-7-one], under setting [1], the IC50 was 1560 nM.
Regarding `C[C@@H](Nc1ncnc2c1cc(C1(F)CCS(=O)(=O)C1)c(=O)n2C)c1cccc(C(F)F)c1F` (stereo partly shown) [Example 29-12], the IC50 under setting [2] was determined as 53.6 nM.
Regarding `COCC1COCCN1C(=O)c1cc2c(N[C@H](C)c3cccc(C(F)F)c3F)ncnc2n(C)c1=O` (stereo partly shown) [Example 26-37], under setting [1], the IC50 worked out at 747 nM.
In the case of `CO[C@@]1(c2cc3c(N[C@H](C)c4cccc(C(F)F)c4F)ncnc3n(C)c2=O)CCN(C(C)=O)[C@@H](C)C1` [Example 32-30], the IC50 under setting [1] is 236 nM.
In the case of `C[C@@H](Nc1ncnc2c1cc(C1=CCS(=O)(=NC3COC3)CC1)c(=O)n2C)c1cccc(C(F)F)c1F` (stereo partly drawn) [Example 65, 4-(((R)-1-(3-(difluoromethyl)-2-fluorophenyl)ethyl)amino)-8-methyl-6-((S)-1-(oxetan-3-ylimino)-1-oxido-1,2,3,6-tetrahydro-1λ^6-thiopyran-4-yl)pyrido[2,3-d]pyrimidin-7(8H)-one], the IC50 under setting [2] was 66.8 nM.
`C[C@@H](Nc1ncnc2c1cc(C1(F)CCC3(CC1)CS(=O)(=NC1CC1)C3)c(=O)n2C)c1cccc(C(F)F)c1F` (single isomer, unassigned) [Example 56-1]: the IC50 under setting [2] stood at 121 nM.
In the case of `C[C@@H](Nc1ncnc2c1cc(C1CCS(=O)(=O)CC1)c(=O)n2C)c1cccc(C(F)F)c1Cl` [Example 33-4], under setting [1], the IC50 was determined as 92.5 nM.
Consider `C[C@@H](Nc1ncnc2c1cc(C1(N)CCS(=O)(=O)C1)c(=O)n2C)c1cccc(C(F)F)c1F` (stereo partly shown) [Example 31-7], for which, under setting [1], the IC50 was determined as 45.6 nM.
The same measure, in the same setting: the result for `C[C@@H](Nc1ncnc2c1cc(C1=CCS(=O)(=NC#N)CC1)c(=O)n2C)c1cccc(C(F)F)c1F` (single isomer, unassigned) [Example 45] reads 29.1 nM; that for `C[C@@H](Nc1ncnc2c1cc(C1CN(S(C)(=O)=O)C1)c(=O)n2C)c1cccc(C(F)F)c1F` [Example 33-7], 521 nM.
As for `CN=S1(=O)CC=C(c2cc3c(N[C@H](C)c4cccc(C(F)F)c4F)ncnc3n(C)c2=O)CC1` (stereo partly drawn) [Example 24, 4-(((R)-1-(3-(difluoromethyl)-2-fluorophenyl)ethyl)amino)-8-methyl-6-(1-(methylimino)-1-oxido-1,2,3,6-tetrahydro-1λ^6-thiopyran-4-yl)pyrido[2,3-d]pyrimidin-7(8H)-one], the IC50 under setting [1] is 61.4 nM.
For `C[C@@H](Nc1ncnc2c1cc(C1(O)CCN(C)CC1)c(=O)n2C)c1cccc(C(F)F)c1F` [Example 28-1], the IC50 (Homo sapiens, PC-9, 1 h) came to 187 nM.
